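The compound was tested at five concentrations on cells cultured in 96-well plates, with a 48-hour exposure period. The concentration for full growth arrest is given as TGI.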
What was measured:
Experiment in all cases: inhibition of tumour cell growth, NCI panel, 48 h
SK-OV-3 ovarian = test system: SK-OV-3 ovarian
A549 NSCLC = test system: A549 NSCLC
M14 melanoma = test system: M14 melanoma
A498 renal = test system: A498 renal
MDA-MB-435 = test system: MDA-MB-435
SW-620 colon = test system: SW-620 colon
UACC-257 melanoma = test system: UACC-257 melanoma
CCRF-CEM leukemia = test system: CCRF-CEM leukemia
DU-145 prostate = test system: DU-145 prostate
TK-10 renal = test system: TK-10 renal
LOX IMVI melanoma = test system: LOX IMVI melanoma
SF-268 CNS = test system: SF-268 CNS
MDA-N = test system: MDA-N
SK-MEL-28 melanoma = test system: SK-MEL-28 melanoma
MDA-MB-231 breast = test system: MDA-MB-231 breast
K-562 leukemia = test system: K-562 leukemia
HT29 colon = test system: HT29 colon
HCT-116 colon = test system: HCT-116 colon
EKVX NSCLC = test system: EKVX NSCLC
UACC-62 melanoma = test system: UACC-62 melanoma
CAKI-1 renal = test system: CAKI-1 renal
PC-3 prostate = test system: PC-3 prostate
NCI-H460 lung = test system: NCI-H460 lung
COLO 205 colon = test system: COLO 205 colon
UO-31 renal = test system: UO-31 renal
SNB-19 CNS = test system: SNB-19 CNS
MCF7 breast = test system: MCF7 breast
U251 CNS = test system: U251 CNS
ACHN renal = test system: ACHN renal
IGROV1 ovarian = test system: IGROV1 ovarian
OVCAR-5 ovarian = test system: OVCAR-5 ovarian
SK-MEL-5 melanoma = test system: SK-MEL-5 melanoma
NCI-H522 lung = test system: NCI-H522 lung
MALME-3M melanoma = test system: MALME-3M melanoma
HCT-15 colon = test system: HCT-15 colon
HOP-62 NSCLC = test system: HOP-62 NSCLC
T-47D breast = test system: T-47D breast
NCI/ADR-RES ovarian = test system: NCI/ADR-RES ovarian
OVCAR-3 ovarian = test system: OVCAR-3 ovarian
SF-295 CNS = test system: SF-295 CNS
OVCAR-8 ovarian = test system: OVCAR-8 ovarian
SK-MEL-2 melanoma = test system: SK-MEL-2 melanoma
SF-539 CNS = test system: SF-539 CNS
KM12 colon = test system: KM12 colon
OVCAR-4 ovarian = test system: OVCAR-4 ovarian
SR leukemia = test system: SR leukemia
HS 578T breast = test system: HS 578T breast
SN12C renal = test system: SN12C renal
RXF 393 renal = test system: RXF 393 renal
MOLT-4 leukemia = test system: MOLT-4 leukemia
HOP-92 NSCLC = test system: HOP-92 NSCLC
NCI-H226 lung = test system: NCI-H226 lung
HCC-2998 colon = test system: HCC-2998 colon
HL-60(TB) leukemia = test system: HL-60(TB) leukemia
NCI-H23 lung = test system: NCI-H23 lung
786-0 renal = test system: 786-0 renal

With COc1ccc(-c2oc3ccccc3c(=O)c2O)cc1OC the TGI (SK-OV-3 ovarian) was > 100 µM, the TGI (A549 NSCLC) was > 100 µM and the TGI (M14 melanoma) was > 100 µM. The TGI (A498 renal) was 71.5 µM, the TGI (MDA-MB-435) was > 100 µM and the TGI (SW-620 colon) was > 100 µM. The TGI (UACC-257 melanoma) was > 100 µM, the TGI (CCRF-CEM leukemia) was > 100 µM and the TGI (DU-145 prostate) was > 100 µM. The TGI (TK-10 renal) was 76.8 µM, the TGI (LOX IMVI melanoma) was > 100 µM and the TGI (SF-268 CNS) was 53 µM. The TGI (MDA-N) was > 100 µM, the TGI (SK-MEL-28 melanoma) was > 100 µM and the TGI (MDA-MB-231 breast) was > 100 µM. The TGI (K-562 leukemia) was > 100 µM, the TGI (HT29 colon) was > 100 µM and the TGI (HCT-116 colon) was > 100 µM. For the same compound, the TGI (EKVX NSCLC) was > 100 µM, the TGI (UACC-62 melanoma) was > 100 µM and the TGI (CAKI-1 renal) was > 100 µM. For the same compound, the TGI (PC-3 prostate) was > 100 µM, the TGI (NCI-H460 lung) was > 100 µM and the TGI (COLO 205 colon) was > 100 µM. The TGI (UO-31 renal) was > 100 µM, the TGI (SNB-19 CNS) was > 100 µM and the TGI (MCF7 breast) was > 100 µM. For the same compound, the TGI (U251 CNS) was 23.4 µM, the TGI (ACHN renal) was > 100 µM and the TGI (IGROV1 ovarian) was > 100 µM. The TGI (OVCAR-5 ovarian) was > 100 µM, the TGI (SK-MEL-5 melanoma) was > 100 µM and the TGI (NCI-H522 lung) was > 100 µM. For the same compound, the TGI (MALME-3M melanoma) was > 100 µM, the TGI (HCT-15 colon) was > 100 µM and the TGI (HOP-62 NSCLC) was 47.4 µM. For the same compound, the TGI (T-47D breast) was > 100 µM, the TGI (NCI/ADR-RES ovarian) was > 100 µM and the TGI (OVCAR-3 ovarian) was > 100 µM. For the same compound, the TGI (SF-295 CNS) was 35.1 µM.

In the case of c1coc(-c2nccc3c2[nH]c2ccccc23)c1, the TGI (OVCAR-8 ovarian) is reported as > 100 µM, the TGI (SK-OV-3 ovarian) is reported as > 100 µM and the TGI (A549 NSCLC) is reported as > 100 µM. The TGI (M14 melanoma) was > 100 µM, the TGI (A498 renal) was > 100 µM and the TGI (SK-MEL-2 melanoma) was > 100 µM. The TGI (SF-539 CNS) was > 100 µM, the TGI (KM12 colon) was > 100 µM and the TGI (MDA-MB-435) was > 100 µM. The TGI (SW-620 colon) was > 100 µM, the TGI (UACC-257 melanoma) was > 100 µM and the TGI (OVCAR-4 ovarian) was > 100 µM. For the same compound, the TGI (CCRF-CEM leukemia) was > 100 µM, the TGI (SR leukemia) was > 100 µM and the TGI (DU-145 prostate) was > 100 µM. The TGI (TK-10 renal) was > 100 µM, the TGI (LOX IMVI melanoma) was > 100 µM and the TGI (SF-268 CNS) was > 100 µM. The TGI (MDA-N) was > 100 µM, the TGI (HS 578T breast) was > 100 µM and the TGI (SK-MEL-28 melanoma) was > 100 µM. For the same compound, the TGI (MDA-MB-231 breast) was > 100 µM, the TGI (SN12C renal) was > 100 µM and the TGI (K-562 leukemia) was > 100 µM. For the same compound, the TGI (HT29 colon) was > 100 µM, the TGI (HCT-116 colon) was > 100 µM and the TGI (EKVX NSCLC) was > 100 µM. The TGI (RXF 393 renal) was > 100 µM, the TGI (UACC-62 melanoma) was > 100 µM and the TGI (CAKI-1 renal) was > 100 µM. For the same compound, the TGI (PC-3 prostate) was > 100 µM, the TGI (MOLT-4 leukemia) was > 100 µM and the TGI (HOP-92 NSCLC) was > 100 µM. The TGI (NCI-H460 lung) was > 100 µM, the TGI (COLO 205 colon) was 33.5 µM and the TGI (SNB-19 CNS) was > 100 µM. For the same compound, the TGI (MCF7 breast) was > 100 µM, the TGI (NCI-H226 lung) was 95.8 µM and the TGI (U251 CNS) was > 100 µM. For the same compound, the TGI (ACHN renal) was > 100 µM, the TGI (IGROV1 ovarian) was > 100 µM and the TGI (HCC-2998 colon) was > 100 µM. For the same compound, the TGI (HL-60(TB) leukemia) was > 100 µM, the TGI (OVCAR-5 ovarian) was > 100 µM and the TGI (SK-MEL-5 melanoma) was > 100 µM. For the same compound, the TGI (NCI-H522 lung) was > 100 µM, the TGI (MALME-3M melanoma) was > 100 µM and the TGI (NCI-H23 lung) was > 100 µM. For the same compound, the TGI (HCT-15 colon) was > 100 µM, the TGI (HOP-62 NSCLC) was > 100 µM and the TGI (786-0 renal) was > 100 µM. For the same compound, the TGI (T-47D breast) was > 100 µM, the TGI (NCI/ADR-RES ovarian) was > 100 µM and the TGI (OVCAR-3 ovarian) was > 100 µM. The TGI (SF-295 CNS) was > 100 µM.

Reference: PubChem BioAssay (NCI)
